Structures can show the parent of a compound that is named as a salt. Where two headings read alike, the source gives them in different places.
Key:
Salmonella = settings: cited from earlier work
[1] = Genotoxicity profile; data extracted from Kirkland et al. 2008; cited from earlier work
[2] = cited from earlier work
[3] = system: Bscl2-GFP and Srxn1-GFP mES reporter cells
[4] = system: mouse ES cell lines containing a DsRed fluorescent reporter; settings: cited from earlier work
[5] = Genotoxicity profile, data extracted from Kirkland et al. 2008
[6] = from which GFP reporter is induced

Compound	Ames test (Salmonella; [5])	In vitro genotoxicity [1]	In vivo genotoxicity [2, 5]	Bscl2-GFP/Srxn1-GFP Prim. toxic properties [3]	Ames test (Salmonella)	mES DsRed reporters ([4]; Hendriks et al. 2011)	In vivo genotoxicity ([2]; in vivo)	Bscl2-GFP/Srxn1-GFP GFP Induction [3]	Bscl2-GFP/Srxn1-GFP Prim. toxic properties [3, 6]	mES DsRed reporters [4]
Oc1cccc(O)c1 [1,3-Dihydroxybenzene (Resorcinol), 1,3-Dihydroxybenzene]	Neg.	Pos.	Neg.	Equivocal						
Oc1ccc(Cl)cc1Cl [2,4-dichlorophenol]				Pro-oxidant	Neg.	Pos.	Weak Pos.	Pos. (key: Pos.: considered positive when exposure to at least two different concentrations of a compound resulted in >1.5 fold induction of GFP expression)		
CCCCCC(O)C=CC=O (centres unmarked) [4-Hydroxy-2-nonenal]	Neg.	Pos.	Neg.	Pro-oxidant						
O=[N+]([O-])c1cc[n+]([O-])c2ccccc12 [4-Nitroquinelone-1-oxide]		Pos.	Pos.					Pos. (considered positive when exposure to at least two different concentrations of a compound resulted in >1.5 fold induction of GFP expression)	Genotoxin	
C[N+](C)(C)CCCl.[Cl-] [(2-chloroethyl)trimethyl-ammonium chloride]					Neg.			Neg.		Neg.
Nc1nc[nH]n1 [Amitrole]	Neg.	Neg.	Neg.			Neg.		Neg.		
OCc1ccccc1 [Benzyl alcohol]	Neg.	Weak Pos.				Neg.		Neg.		
CC[C@@]1(O)C(=O)OCc2c1cc1n(c2=O)Cc2cc3ccccc3nc2-1 [Camptothecin]	Neg.	Pos.	Neg.					Pos. (considered positive when exposure to at least two different concentrations of a compound resulted in >1.5 fold induction of GFP expression)	Genotoxin	
COc1cc(/C=C/C(=O)CC(=O)/C=C/c2ccc(O)c(OC)c2)ccc1O [Curcumln]	Neg.	Pos.				Neg.		Neg.		
O=C1CCCCC1 [Cyclohexanone]	Neg.	Neg.				Neg.		Neg.		
Nc1ccn([C@@H]2O[C@H](CO)[C@@H](O)[C@@H]2O)c(=O)n1 [Cytarabine]				Genotoxin	Neg.					
C=C(C)[C@H]1CC=C(C)CC1 [D-limonene]						Neg.		Neg.		
OCCNCCO [Diethanolamine]	Neg.	Neg.	Neg.			Neg.		Neg.		
CC[C@H]1OC(=O)[C@H](C)[C@@H](O[C@H]2C[C@@](C)(OC)[C@@H](O)[C@H](C)O2)[C@H](C)[C@@H](O[C@@H]2O[C@H](C)C[C@H](N(C)C)[C@H]2O)[C@](C)(O)C[C@@H](C)C(=O)[C@H](C)[C@@H](O)[C@]1(C)O [Erythromycin stearate]	Neg.							Neg.		
CCc1cc(C(N)=S)ccn1 [Ethionamide]	Neg.	Weak Pos.				Neg.		Neg.		
C=CC(=O)OCC [Ethyl acrylate]					Neg.	Neg.	Weak Pos.	Neg.		
C=CCc1ccc(O)c(OC)c1 [Eugenol]	Neg.						Equivocal	Neg.		Neg.
CN1CC[C@H](c2c(O)cc(O)c3c(=O)cc(-c4ccccc4Cl)oc23)[C@H](O)C1 [Flavopiridol]								Neg.		

Compound	Ames test (Salmonella; [5])	In vitro genotoxicity [1]	In vivo genotoxicity [2, 5]	Bscl2-GFP/Srxn1-GFP Prim. toxic properties [3]	Ames test (Salmonella)	mES DsRed reporters ([4]; Hendriks et al. 2011)	In vivo genotoxicity ([2]; in vivo)	Bscl2-GFP/Srxn1-GFP GFP Induction [3]	Bscl2-GFP/Srxn1-GFP Prim. toxic properties [3, 6]	mES DsRed reporters [4]
CN(C)C(=O)Nc1cccc(C(F)(F)F)c1 [Fluometron]	Neg.	Neg.				Neg.		Neg.		
ClC(Cl)(Cl)C(Cl)(Cl)Cl [Hexachloroethane]	Neg.	Neg.	Neg.			Neg.		Neg.		
OO [Hydrogen peroxide]	Pos.	Pos.	Neg.	Pro-oxidant		Neg.				
CC(C)C=O [Isobutyraldehyde]								Neg.		Neg.
COC(N)=O [Methyl carbamate]		Neg.	Neg.							
NC(=S)N(C1CCCCC1)C1CCCCC1 [N,N-dicyclohexyl thiourea]	Neg.	Neg.				Neg.		Neg.		
[H]/N=C(/N)N/C(=N/[H])NCCc1ccccc1 [Phenformin HCl]						Neg.		Neg.		
CCCOC(=O)c1cc(O)c(O)c(O)c1 [Propyl gallate]	Neg.	Pos.	Equivocal	Equivocal		Pos.				
c1ccncc1 [Pyrldlne]	Neg.	Neg.	Neg.			Neg.		Neg.		
O=C1NS(=O)(=O)c2ccccc21.[Na] [Sodium saccharin]					Neg.		Neg.	Neg.		Neg.
Cc1noc(NS(=O)(=O)c2ccc(N)cc2)c1C [Sulfisoxazole]	Neg.			Pro-oxidant		Neg.		Pos. (key: Pos.: considered positive when exposure to at least two different concentrations of a compound resulted in >1.5 fold induction of GFP expression)		
CC(=O)O[C@H]1C(=O)[C@@]2(C)[C@H]([C@H](OC(=O)c3ccccc3)[C@]3(O)C[C@H](OC(=O)[C@H](O)[C@@H](NC(=O)c4ccccc4)c4ccccc4)C(C)=C1C3(C)C)[C@]1(OC(C)=O)CO[C@@H]1C[C@@H]2O [Taxol]	Neg.	Pos.	Pos.	Genotoxin						
CC(C)(C)OO [Tert-butyl hydroperoxide]								Pos. (key: Pos.: considered positive when exposure to at least two different concentrations of a compound resulted in >1.5 fold induction of GFP expression)		Neg.
NC(N)=O [Urea]	Neg.	Pos.				Neg.		Neg.		
O=[N+]([O-])c1ccc(O)cc1 [p-Nitrophenol]				Pro-oxidant				Pos. (key: Pos.: considered positive when exposure to at least two different concentrations of a compound resulted in >1.5 fold induction of GFP expression)		Neg.
Nc1ccc(Cl)cc1 [p-chloroaniline]					Pos.		Pos.	Neg.		Neg.
Bleomycin	Pos.	Pos.	Pos.					Pos. (considered positive when exposure to at least two different concentrations of a compound resulted in >1.5 fold induction of GFP expression)	Genotoxin	
n-butyl chloride										Neg.

— patent US9695481B2, “Polynucleotides comprising a reporter sequence operatively linked to a regulatory element” (UNIVERSITEIT LEIDEN, priority 2010, dated 2017)
